From the supplement of paper PMC10307832 come the findings set out here.

Common to all, as to experiment: relative viability (nuclei count vs DMSO), 5 days (fraction); higher = more cells survive
Compound in the assay “R406 + Dasatinib”: COc1cc(Nc2ncc(F)c(Nc3ccc4c(n3)NC(=O)C(C)(C)O4)n2)cc(OC)c1OC [R406] + Cc1nc(Nc2ncc(C(=O)Nc3c(C)cccc3Cl)s2)cc(N2CCN(CCO)CC2)n1 [Dasatinib] (partner 0.075 µM)
The gist of the method: (§1)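 Relative viability divides the nuclei count in treated wells by that in vehicle wells. Lung cancer cell lines were seeded in 1536-well plates, dosed by pin tool the next day, and fixed and stained after 5 days in one step with final 0.05% Triton X-100, 1% formaldehyde and 1 ug/ml Hoechst. Dosing was a single drug or a fixed anchor-drug dose plus five library-drug doses (not always all listed) in √10 steps, and values are medians of duplicate plates imaged at 4×.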

Compound in the assay “Daporinad + Bortezomib”: O=C(/C=C/c1cccnc1)NCCCCC1CCN(C(=O)c2ccccc2)CC1 [Daporinad] + CC(C)C[C@H](NC(=O)[C@H](Cc1ccccc1)NC(=O)c1cnccn1)B(O)O [Bortezomib] (partner 0.002 µM)
An outline of the steps:
as §1

Compound in the assay “Daporinad + Tozasertib”: O=C(/C=C/c1cccnc1)NCCCCC1CCN(C(=O)c2ccccc2)CC1 [Daporinad] + Cc1cc(Nc2cc(N3CCN(C)CC3)nc(Sc3ccc(NC(=O)C4CC4)cc3)n2)n[nH]1 [Tozasertib] (partner 0.1 µM)
An outline of the steps: as §1

Compound in the assay “Daporinad + Pemetrexed”: O=C(/C=C/c1cccnc1)NCCCCC1CCN(C(=O)c2ccccc2)CC1 [Daporinad] + Nc1nc2[nH]cc(CCc3ccc(C(=O)N[C@@H](CCC(=O)O)C(=O)O)cc3)c2c(=O)[nH]1 [Pemetrexed] (partner 0.2 µM)
An outline of the steps: as §1

Take NCI-H460: the relative viability in the assay with R406 + Dasatinib (first compound 0.08 µM) worked out at 0.477; with R406 + Dasatinib (first compound 0.253 µM), 0.584; with R406 + Dasatinib (first compound 0.8 µM), 0.586; with R406 + Dasatinib (first compound 2.53 µM), 0.323; in the assay with R406 + Dasatinib (first compound 8 µM), 0.257; with Daporinad + Bortezomib (first compound 0.0005 µM), 1.1. Further, the relative viability turned out to be 1.17 in the assay with Daporinad + Bortezomib (first compound 0.001581 µM); 1.05 with Daporinad + Bortezomib (first compound 0.005 µM); 1.05 in the assay with Daporinad + Bortezomib (first compound 0.01581 µM); 0.43 with Daporinad + Tozasertib (first compound 0.0005 µM); 0.386 with Daporinad + Tozasertib (first compound 0.001581 µM); 0.6 in the assay with Daporinad + Tozasertib (first compound 0.005 µM). Besides, the relative viability turned out to be 0.56 with Daporinad + Tozasertib (first compound 0.01581 µM); 0.0681 with Daporinad + Pemetrexed (first compound 0.0005 µM); 0.0617 with Daporinad + Pemetrexed (first compound 0.001581 µM); 0.0618 with Daporinad + Pemetrexed (first compound 0.005 µM); 0.0602 with Daporinad + Pemetrexed (first compound 0.01581 µM).
On to NCI-H520, for which the relative viability was determined as 0.209 with R406 + Dasatinib (first compound 0.08 µM); 0.235 in the assay with R406 + Dasatinib (first compound 0.253 µM); 0.223 with R406 + Dasatinib (first compound 0.8 µM); 0.198 with R406 + Dasatinib (first compound 2.53 µM); 0.189 with R406 + Dasatinib (first compound 8 µM); 0.624 with Daporinad + Bortezomib (first compound 0.0005 µM). Further, the relative viability is 0.686 in the assay with Daporinad + Bortezomib (first compound 0.001581 µM); 0.223 with Daporinad + Bortezomib (first compound 0.005 µM); 0.151 in the assay with Daporinad + Bortezomib (first compound 0.01581 µM); 0.446 with Daporinad + Tozasertib (first compound 0.0005 µM); 0.507 with Daporinad + Tozasertib (first compound 0.001581 µM); 0.25 with Daporinad + Tozasertib (first compound 0.005 µM). Also, the relative viability in the assay with Daporinad + Tozasertib (first compound 0.01581 µM) worked out at 0.184; with Daporinad + Pemetrexed (first compound 0.0005 µM), 0.67; with Daporinad + Pemetrexed (first compound 0.001581 µM) it was 0.395; in the assay with Daporinad + Pemetrexed (first compound 0.005 µM), 0.239; in the assay with Daporinad + Pemetrexed (first compound 0.01581 µM) it was 0.149.
As to NCI-H596, the relative viability in the assay with R406 + Dasatinib (first compound 0.08 µM) turned out to be 0.619; with R406 + Dasatinib (first compound 0.253 µM), 0.61; in the assay with R406 + Dasatinib (first compound 0.8 µM), 0.686; with R406 + Dasatinib (first compound 2.53 µM), 0.505; in the assay with R406 + Dasatinib (first compound 8 µM), 0.173; with Daporinad + Bortezomib (first compound 0.0005 µM) it was 1.05. Further, the relative viability in the assay with Daporinad + Bortezomib (first compound 0.001581 µM) is 1.02; with Daporinad + Bortezomib (first compound 0.005 µM), 0.998; in the assay with Daporinad + Bortezomib (first compound 0.01581 µM) it was 0.788; in the assay with Daporinad + Tozasertib (first compound 0.0005 µM), 0.879; with Daporinad + Tozasertib (first compound 0.001581 µM), 0.929; with Daporinad + Tozasertib (first compound 0.005 µM) it was 1.1. Besides, the relative viability with Daporinad + Tozasertib (first compound 0.01581 µM) was 0.65; with Daporinad + Pemetrexed (first compound 0.0005 µM), 0.432; in the assay with Daporinad + Pemetrexed (first compound 0.001581 µM) it was 0.457; in the assay with Daporinad + Pemetrexed (first compound 0.005 µM) it was 0.525; in the assay with Daporinad + Pemetrexed (first compound 0.01581 µM), 0.36.
As for NCI-H647, the relative viability in the assay with R406 + Dasatinib (first compound 0.08 µM) came to 0.168; with R406 + Dasatinib (first compound 0.253 µM), 0.161; with R406 + Dasatinib (first compound 0.8 µM), 0.251; in the assay with R406 + Dasatinib (first compound 2.53 µM), 0.108; in the assay with R406 + Dasatinib (first compound 8 µM), 0.0646; in the assay with Daporinad + Bortezomib (first compound 0.0005 µM), 1.03. Further, the relative viability came out at 1.04 with Daporinad + Bortezomib (first compound 0.001581 µM); 1.14 in the assay with Daporinad + Bortezomib (first compound 0.005 µM); 1.01 with Daporinad + Bortezomib (first compound 0.01581 µM); 0.308 with Daporinad + Tozasertib (first compound 0.0005 µM); 0.305 with Daporinad + Tozasertib (first compound 0.001581 µM); 0.285 in the assay with Daporinad + Tozasertib (first compound 0.005 µM). The relative viability in the assay with Daporinad + Tozasertib (first compound 0.01581 µM) came out at 0.508; with Daporinad + Pemetrexed (first compound 0.0005 µM), 0.193; with Daporinad + Pemetrexed (first compound 0.001581 µM) it was 0.191; with Daporinad + Pemetrexed (first compound 0.005 µM), 0.173; in the assay with Daporinad + Pemetrexed (first compound 0.01581 µM), 0.21.
Regarding NCI-H650, the relative viability with R406 + Dasatinib (first compound 0.08 µM) came to 0.463; with R406 + Dasatinib (first compound 0.253 µM), 0.513; with R406 + Dasatinib (first compound 0.8 µM) it was 0.483; with R406 + Dasatinib (first compound 2.53 µM) it was 0.426; with R406 + Dasatinib (first compound 8 µM) it was 0.425; with Daporinad + Bortezomib (first compound 0.0005 µM) it was 0.622. Further, the relative viability with Daporinad + Bortezomib (first compound 0.001581 µM) is 0.817; with Daporinad + Bortezomib (first compound 0.005 µM), 0.669; with Daporinad + Bortezomib (first compound 0.01581 µM), 0.833; with Daporinad + Tozasertib (first compound 0.0005 µM) it was 0.691; with Daporinad + Tozasertib (first compound 0.001581 µM) it was 0.853; in the assay with Daporinad + Tozasertib (first compound 0.005 µM), 0.738. The relative viability was 0.835 with Daporinad + Tozasertib (first compound 0.01581 µM); 0.903 in the assay with Daporinad + Pemetrexed (first compound 0.0005 µM); 0.949 with Daporinad + Pemetrexed (first compound 0.001581 µM); 1.02 in the assay with Daporinad + Pemetrexed (first compound 0.005 µM); 1.16 in the assay with Daporinad + Pemetrexed (first compound 0.01581 µM).
On to NCI-H661, for which the relative viability in the assay with R406 + Dasatinib (first compound 0.08 µM) was 0.847; with R406 + Dasatinib (first compound 0.253 µM), 0.824; with R406 + Dasatinib (first compound 0.8 µM), 1.1; with R406 + Dasatinib (first compound 2.53 µM), 0.684; with R406 + Dasatinib (first compound 8 µM), 0.402; in the assay with Daporinad + Bortezomib (first compound 0.0005 µM), 0.941. Besides, the relative viability in the assay with Daporinad + Bortezomib (first compound 0.001581 µM) came to 0.867; in the assay with Daporinad + Bortezomib (first compound 0.005 µM), 0.659; with Daporinad + Bortezomib (first compound 0.01581 µM) it was 0.477; with Daporinad + Tozasertib (first compound 0.0005 µM), 0.368; with Daporinad + Tozasertib (first compound 0.001581 µM), 0.339; with Daporinad + Tozasertib (first compound 0.005 µM), 0.345. Further, the relative viability with Daporinad + Tozasertib (first compound 0.01581 µM) came out at 0.292; in the assay with Daporinad + Pemetrexed (first compound 0.0005 µM), 0.959; in the assay with Daporinad + Pemetrexed (first compound 0.001581 µM) it was 0.791; with Daporinad + Pemetrexed (first compound 0.005 µM), 0.652; with Daporinad + Pemetrexed (first compound 0.01581 µM), 0.51.
For the cell line NCI-H838, the relative viability turned out to be 0.25 with R406 + Dasatinib (first compound 0.08 µM); 0.287 with R406 + Dasatinib (first compound 0.253 µM); 0.52 with R406 + Dasatinib (first compound 0.8 µM); 0.204 with R406 + Dasatinib (first compound 2.53 µM); 0.219 with R406 + Dasatinib (first compound 8 µM); 0.795 with Daporinad + Bortezomib (first compound 0.0005 µM). Further, the relative viability with Daporinad + Bortezomib (first compound 0.001581 µM) came to 1.2; with Daporinad + Bortezomib (first compound 0.005 µM) it was 0.828; in the assay with Daporinad + Bortezomib (first compound 0.01581 µM), 0.443; in the assay with Daporinad + Tozasertib (first compound 0.0005 µM) it was 0.25; with Daporinad + Tozasertib (first compound 0.001581 µM) it was 0.322; in the assay with Daporinad + Tozasertib (first compound 0.005 µM), 0.229. Moreover, the relative viability in the assay with Daporinad + Tozasertib (first compound 0.01581 µM) turned out to be 0.177; with Daporinad + Pemetrexed (first compound 0.0005 µM), 0.249; in the assay with Daporinad + Pemetrexed (first compound 0.001581 µM) it was 0.262; with Daporinad + Pemetrexed (first compound 0.005 µM) it was 0.172; with Daporinad + Pemetrexed (first compound 0.01581 µM), 0.179.
